{"source": "paper PMC3358459", "about": "(Journal of Pharmaceutical and Biomedical Analysis, 2012)", "key": {"[1]": {"experiment": "Stability of R-", "format": "in vitro ADME, human", "settings": "for Remained concentration: human plasma with 20 mM glutathione, added concentration 3.585 μg/mL, n=3, Mean±S.D."}, "[2]": {"settings": "cited from earlier work"}}, "data": [{"compound": "Cc1cc2c(C(C)C)c(O)c(O)c(C=O)c2c(O)c1-c1c(C)cc2c(C(C)C)c(O)c(O)c(C=O)c2c1O", "note": "[R-(-)-gossypol]", "values": [{"measurement": "Stability in mobile phase", "setting": "acetonitrile/water (80:20), 24hr at 4°C", "value": "good stability"}, {"measurement": "Effect of antioxidants on stability in plasma", "setting": "[1]; 5 μg/mL in plasma with 20 mM reduced glutathione and 1% ascorbic acid, 4°C", "value": "can improve the stability"}, {"measurement": "Remained concentration", "setting": "[1]; -80°C, 1 month", "value": "111.8±5.6", "unit": "%"}, {"measurement": "Remained concentration", "setting": "[1]; on ice, 4hr", "value": "103.8±6.1", "unit": "%"}, {"measurement": "Remained concentration", "setting": "[1]; three freeze-thaw cycles", "value": "86.9±1.1", "unit": "%"}, {"measurement": "Degraded in plasma", "setting": "[1]; plasma, room temperature, over 24hr, compared to freshly prepared samples", "value": "more than 60%"}]}, {"compound": "R-(-)-gossypol acetic acid", "values": [{"measurement": "Time stock solution was stable", "setting": "1mg/mL in acetonitrile, -70°C", "value": 3, "unit": "months"}]}, {"compound": "Cc1cc2c(C(C)C)c(O)c(O)c(C=O)c2c(O)c1-c1c(C)cc2c(C(C)C)c(O)c(O)c(C=O)c2c1O", "note": "[gossypol]", "values": [{"measurement": "Stability of quality control plasma samples", "setting": "[1]; plasma with 20 mM glutathione, -70°C for 1 month", "value": "stable"}, {"measurement": "Freeze-thaw stability", "setting": "[1]; plasma with 20 mM glutathione, after 3 cycles, lower concentration", "value": "significant degradation"}, {"measurement": "Stability of quality control plasma samples", "setting": "[1]; plasma with 20 mM glutathione, on ice for 4 hr", "value": "stable"}, {"measurement": "Stability in acetonitrile", "setting": "[2]; acetonitrile", "value": "stable"}, {"measurement": "Stability in methanol", "setting": "[2]; methanol, even at 5°C", "value": "decompose"}, {"measurement": "Stability in solvents", "setting": "[2]; water, methanol, ethanol and alcoholic solvents", "value": "unstable"}]}]}
